This is an account of results in patent US20120309821A1, “Use of epigallocatechin-3-gallate for immune regulation” (NATIONAL DEFENSE MEDICAL CENTER, priority 2011, published 2012).

Assay [1] deals with CD4+CD25+ Treg cells. The experiment in a line: Treg cell functional assay (3H-thymidine proliferation, cells from treated mice). Format: cell-based, mouse.
Assay [2] deals with CD3+CD69+ cells (activated T cells). The experiment in a line: T cell activation in splenocytes by flow cytometry. Format: in vivo, mouse. The note with it: 120 mg/kg by gavage daily; week 34; increase seen in disease control. As to the method:
Female NZB/W F1 mice were purchased from the Animal Center of the National Taiwan University (Taipei, Taiwan, ROC) and, at 12 weeks of age, were divided into two groups, one of which was given normal saline and served as the disease control, while the other was given 120 mg/kg body weight of EGCG (Ryss Lab, Inc., CA, USA) (this dose is a slight modification of those used in previous in vivo studies) by gavage daily till sacrificed at 34-weeks-old. 8-Week-old NZB/W F1 female mice (prior to onset of autoantibody production) were used as normal controls. Urine samples were collected in metabolic cages every 2 weeks and urine protein levels were measured, and serum samples were used to measure serum levels of blood urea nitrogen (BUN) and creatinine (Cr) as described previously (Ka, S. M. et al. Decoy receptor 3 ameliorates an autoimmune crescentic glomerulonephritis model in mice. J Am Soc Nephrol 18:2473-2485; 2007). All animal experiments were performed upon the ethical approval of the Institutional Animal Care and Use Committee of the National Defense Medical Center, Taiwan and according to the ethical rules in the NIH Guide for the Care and Use of Laboratory Animals. […]

In assay [3] the test system is IgG immune complex deposition in the glomerulus. The assay can be described thus: Kidney IgG immune complex deposits by immunofluorescence. The conditions noted are these: 120 mg/kg by gavage daily; week 34; disease control vs EGCG-treated mice. Format: in vivo, mouse. As to the method:
Female NZB/W F1 mice were purchased from the Animal Center of the National Taiwan University (Taipei, Taiwan, ROC) and, at 12 weeks of age, were divided into two groups, one of which was given normal saline and served as the disease control, while the other was given 120 mg/kg body weight of EGCG (Ryss Lab, Inc., CA, USA) (this dose is a slight modification of those used in previous in vivo studies) by gavage daily till sacrificed at 34-weeks-old. 8-Week-old NZB/W F1 female mice (prior to onset of autoantibody production) were used as normal controls. Urine samples were collected in metabolic cages every 2 weeks and urine protein levels were measured, and serum samples were used to measure serum levels of blood urea nitrogen (BUN) and creatinine (Cr) as described previously (Ka, S. M. et al. Decoy receptor 3 ameliorates an autoimmune crescentic glomerulonephritis model in mice. J Am Soc Nephrol 18:2473-2485; 2007). All animal experiments were performed upon the ethical approval of the Institutional Animal Care and Use Committee of the National Defense Medical Center, Taiwan and according to the ethical rules in the NIH Guide for the Care and Use of Laboratory Animals. For immune complex detection, frozen renal tissues were prepared and incubated with fluorescein isothiocyanate (FITC)-conjugated goat anti-mouse IgG antibodies (Cappel, N.C., USA). […] Scoring of staining was recorded.

The subject of assay [4] is IL-18. The assay can be described thus: Serum IL-18 ELISA. Format: in vivo, mouse. The conditions noted are these: 120 mg/kg by gavage daily; week 34; vs disease control mice. As to the method:
Female NZB/W F1 mice were purchased from the Animal Center of the National Taiwan University (Taipei, Taiwan, ROC) and, at 12 weeks of age, were divided into two groups, one of which was given normal saline and served as the disease control, while the other was given 120 mg/kg body weight of EGCG (Ryss Lab, Inc., CA, USA) (this dose is a slight modification of those used in previous in vivo studies) by gavage daily till sacrificed at 34-weeks-old. 8-Week-old NZB/W F1 female mice (prior to onset of autoantibody production) were used as normal controls. Urine samples were collected in metabolic cages every 2 weeks and urine protein levels were measured, and serum samples were used to measure serum levels of blood urea nitrogen (BUN) and creatinine (Cr) as described previously (Ka, S. M. et al. Decoy receptor 3 ameliorates an autoimmune crescentic glomerulonephritis model in mice. J Am Soc Nephrol 18:2473-2485; 2007). All animal experiments were performed upon the ethical approval of the Institutional Animal Care and Use Committee of the National Defense Medical Center, Taiwan and according to the ethical rules in the NIH Guide for the Care and Use of Laboratory Animals. Serum levels of IL-1β and IL-18 were measured using commercial ELISA kits (BD Biosciences) according to the manufacturer's instructions.

Turning to Epigallocatechin-3-gallate [EGCG], in assay [1] (Treg cells from EGCG-treated mice), the “proliferation of Treg cells incubated alone following anti-CD3 antibody stimulation” value is given as “did not proliferate”. For the same substance, the “inhibition of responder T cell proliferation by added Treg cells (Treg cell activity)” value in assay [1] (Treg cells from EGCG-treated mice vs Treg cells from disease control mice, titration) is listed as “much greater”. For the same substance, the “proliferation of responder T cells incubated alone following anti-CD3 antibody stimulation” value in assay [1] (responder T cells from EGCG-treated vs disease control mice) is recorded as “proliferated, but to an equal extent”. Moreover, in assay [2], the “percentage of CD3+CD69+ cells (activated T cells) in CD3+ splenocytes” value is recorded as “not inhibited”. Moreover, the “IgG immune complex deposition in the glomerulus” value in assay [3] is “no significant difference”. Further, in assay [4], the “serum levels of IL-18” value is “significantly lower”.
